A melting point compilation (Tetko et al.; mined from patent text by program, amines drawn as free bases though some values may be those of a salt)

| melting point | Structure (SMILES) |
| --- | --- |
| 156 to 157 °C | Cc1ccc(Sc2ccccc2)c(C(=O)O)c1 |
| 115 to 123 °C | CCC12CCC3c4ccc(OC)cc4C(C)CC3C1CCC2=O (stereo not drawn) |
| 54 to 56 °C | O=C1N(Cc2ccc(OC(F)(F)F)cc2)C(=NCC(F)(F)F)SCN1c1ccccc1 |
| 164 °C | Cc1c(-c2ncc([N+](=O)[O-])n2C)cnn1-c1ccc(Cl)cc1 |
| 225 to 226 °C | Cc1cnc(C(=O)c2[nH]c3cc(Cl)ccc3c2CC(=O)O)s1 |
| 268 to 269 °C | CC(=O)N[C@H]1CC[C@H](c2ccc(S(N)(=O)=O)cc2)CC1 |
| 167 to 168 °C | Cc1c(NC(=O)c2ccc(OCc3ccc(Cl)cc3)cc2)ccc2cc(CN3CCCC3)cnc12 |
| 178 to 179 °C | CC(=O)c1ccc(OC2SCC(O)C(O)C2O)cn1 (stereo not drawn) |
| 78 to 80 °C | CCN1CCCC1CNC(=O)c1cc(OCC(F)(F)F)ccc1OCC(F)(F)F (stereo not drawn) |
| > 300 °C | CC(C)(C)C(=O)Nc1nc(O)c2cc(CCc3ccc(C(=O)O)cc3)cnc2n1 |
| 136 to 138 °C | COCCN1C(=O)CCCc2c1ccc(Nc1ncc(Cl)c(Nc3ccc(N4CCOCC4)cc3OC)n1)c2OC |
| 197 to 199 °C | COc1ccc(C(=C/C=C/C(=O)Nc2cccc3cnccc23)c2ccc(OC)cc2)cc1 |
| 80 °C | CCOc1ccc(C2=NC[C@@H](OC(=O)Nc3ccccc3)[C@H](c3ccccc3)O2)cc1 (racemic) |
| 118 °C | O=C(Nc1ccc(Cl)cc1)Oc1ccc2c(c1)NCCC2 |
| 202 to 204 °C | Cn1cccc1C(=O)Nc1cccc(/C=C/C(=O)O)c1 |
| 97 to 99 °C | O=C1Cc2ccccc2N1C1=NCCS1 |
| > 270 °C | CC(C)(C)OC(=O)N1CCC(C2=C(C#N)C(c3cccc(C#N)c3Br)c3c[nH]nc3N2)CC1 (stereo not drawn) |
| 134 to 136 °C | CN(CC(=O)Nc1ccccc1N)C(=O)OC(C)(C)C |
| 97 to 99 °C | Cc1ccccc1C1CN(C(=O)OC(C)(C)C)CCC1=O (stereo not drawn) |
| 75 to 77 °C | CCC(=O)N(CC)c1ccc(C(=O)C=CN(C)C)cc1 |
| 172 °C | CC(=O)C(O)C1OC(Sc2ncc(Cl)cn2)C(O)(C(C)=O)C(O)(C(C)=O)C1(O)C(C)=O (stereo not drawn) |
| 258 to 260 °C | N#Cc1cnc2c(sc3c([N+](=O)[O-])cccc32)c1Cl |
| 73.5 to 75 °C | Cc1ccc(C(OC2CCN(CC(=O)O)CC2)c2ccccc2)cc1 (stereo not drawn) |
| 252 to 253 °C | O=C(O)c1ccc(COCc2csc3nc(C(=O)NCc4ccc(Cl)c(Cl)c4)[nH]c(=O)c23)cc1 |
| 159 to 161 °C | CC1(C(CCO)C(N)=O)OCCc2c1[nH]c1ccccc21 (stereo not drawn) |

| melting point | Structure (SMILES) |
| --- | --- |
| 158 to 160 °C | CCCS(=O)CC(=O)NNC(=O)N1Cc2ccccc2Oc2ccc(Cl)cc21 (stereo not drawn) |
| 83 to 84 °C | Fc1ccc2c(-c3cccc(OC[C@@H]4CO4)c3)noc2c1 |
| 198 to 200 °C | CCn1cc(C(=O)O)c(=O)c2cc(F)c(N3CCNC(COc4ccccc4)C3)cc21 (stereo not drawn) |
| 235 to 236 °C | O=C(O)c1ccc(Cl)cc1NCc1cccnc1 |
| 66 to 68 °C | COC(=O)CC(C#Cc1cccc(-c2noc(C)n2)c1)c1ccc(OC)c(OC2CCCC2)c1 (racemic) |
| 238 to 240 °C | CN1CCN(c2ccc(Nc3ncc4c(n3)SC(=Cc3ccc(OCc5ccccc5)cc3)C(=O)N4)cc2)CC1 |
| 184 °C | CC(=O)OC1CSC(Oc2cncc(-c3ccco3)c2)C(OC(C)=O)C1OC(C)=O (stereo not drawn) |
| 57 °C | CC(=O)c1ccc(Cl)c(C)c1F |
| 177 to 178 °C | COC(=O)c1cc2ccc(Cl)cc2n1CC#N |
| 148 °C | CNc1ncc2c(n1)N(C1CCC(C(=O)O)CC1)C(=O)N(c1c(F)c(OC)cc(OC)c1F)C2 (stereo not drawn) |
| 160 to 163 °C | COc1ccc(NS(C)(=O)=O)cc1C(=O)O |
| 143 to 145 °C | O=C(O)COc1cc(F)ccc1C(=O)NCc1ccc(Br)cc1F |
| 90 °C | CC(C)(C)OC(=O)Nc1ccc(Cl)c(C(F)(F)F)c1 |
| 119 to 121 °C | CC(=O)OC(=O)c1cc(CCl)ccc1O |
| 180 to 183 °C | COc1nc(C)cnc1NS(=O)(=O)c1cccnc1-c1ccc(I)cc1 |
| 90 to 92 °C | CCOCCn1c(COc2ccc(CO)cc2)nc2ccccc21 |
| 114 to 116 °C | COc1ccnc(OC)c1CON=C(C)c1cc(C)cc(C)n1 |
| 189 to 190 °C | CN(C)C(=O)C(=O)c1c[nH]c2ccc(Br)cc12 |
| 186 °C | CC(=O)OCCc1ccc(-c2ccc(=O)[nH]n2)cc1 |
| 193 to 195 °C | Cc1ccc(-n2c(-c3ccc(CC(=O)O)cc3)ccc2-c2ccc(CC(=O)O)cc2)cc1 |
| 140 to 141 °C | Cc1sc(N)c(C(=O)c2ccccc2)c1C |
| 270 °C | O=C(Nc1ccc2ccc(Cl)nc2n1)C1=CSCCO1 |
| 84 to 85 °C | Cc1ccc(C(=O)c2ccccc2Cl)n1N |
| 169 to 170 °C | CCC(=O)c1ccc(NC(C)=O)cc1 |

More lines, now with the values behind:

| Structure (SMILES) | melting point |
| --- | --- |
| COc1cccc2c1CC1CC(CCN3CCC(c4c[nH]c5ccccc45)CC3)CN(C)C1C2 (stereo not drawn) | 215 to 217 °C |
| CC1(C)C=Cc2c(cc(O)c3c(=O)c4cc5ccccc5cc4[nH]c23)O1 | 225 °C |
| N#Cc1c(Cl)ccc([N+](=O)[O-])c1N | 181 to 184 °C |
| Cn1nnnc1SCC(CS(=O)(=O)c1ccc(-c2ccc(Cl)cc2)cc1)C(=O)O (stereo not drawn) | 98 to 100 °C |
| CCCCc1nn(Cc2ccc(-c3ccccc3-c3nnn[nH]3)cc2)c(=O)n1Cc1ccc(-c2ccccc2-c2nnn[nH]2)cc1 | 150 to 151 °C |
| Cc1cc(OC(F)F)nc(S(C)(=O)=O)n1 | 86 to 88 °C |
| COc1cc(COc2nn(-c3ccccc3)cc2C(N)=O)ccc1OCc1nc(-c2ccccc2)oc1C | 190 to 191 °C |
| Cc1cc2nc(Cl)cc(N)c2[nH]1 | 270 °C |
| O=C(Nc1ccccc1[N+](=O)[O-])c1ccc(-n2nc(C(F)(F)F)cc2C(F)(F)F)cc1 | 173 to 175 °C |
| CCOC(=O)c1ccc(OCCCCCCCCCCCCCCCOc2ccc(Cl)cc2)cc1 | 84 to 85 °C |
| N#Cc1cc(Br)c(OC(=O)OCOC(=O)COc2ccc(Cl)cc2Cl)c(Br)c1 | 88 to 89 °C |
| O=C(NCCCCN1CCC(c2ccc3c(c2OCc2ccccc2)CCCC3)CC1)c1ccc(-c2ccc(C(F)(F)F)cc2)cc1 | 169 to 170 °C |
| CCOC(=O)c1cn(-c2cc(N(C)C)c(F)cc2F)c2nc(Cl)c(F)cc2c1=O | 158 to 163 °C |
| Cc1ccc(-c2ccc3c(c2)C=C(C(=O)NC2CCN(CCC4CCCCC4)CC2)CCO3)cc1 | 193 to 196 °C |
| CC(=O)Nc1ccc(NC(=O)c2ccc(-c3[nH]nc4c3C(=O)c3c(NC(=O)NN5CCOCC5)cccc3-4)s2)cc1 | 253 to 254 °C |
| CCCCCCCCCCCCn1c2nc(=O)[nH]c(=O)c-2nc2cc(C)c(C)cc21 | 223 to 224 °C |
| Nc1nc(NCCc2ccc(O)cc2)nc2nc(-c3ccco3)nn12 | 225 to 227 °C |
| COCCOc1ccccc1-c1cc2[nH]c3ccc(OCc4ccccc4)cc3c2c2c1C(=O)NC2=O | 157 to 159 °C |
| C=CCN(C)CCNc1ccnc2cc(Cl)ccc12 | 91 to 93 °C |
| CNS(=O)(=O)N(C)C(=O)CCCl | 96 °C |
| Cc1c(C(=O)Nc2ccc(N3CCC(N4CCOCC4)CC3)c(C#N)c2)cnn1-c1cccc(Cl)c1 | 210 °C |
| O=[N+]([O-])c1ccc(C=Cc2ccc(Cl)c(Cl)c2)cc1 | 190 to 191 °C |
| C#Cc1cccc(N2C(=O)c3ccccc3C2=O)c1 | 197 to 198 °C |
| COc1sc(C)c(CO)c1C | 55 to 60 °C |
| CC(C)NCC(O)COc1ccc2c(=O)cc(-c3ccc(OCc4ccccc4)c(OCc4ccccc4)c3)oc2c1 (stereo not drawn) | 177 to 179 °C |

| Structure (SMILES) | melting point |
| --- | --- |
| Cc1ccccc1CN1CCC(n2c(C)c(-c3ccccc3)[nH]c2=O)CC1 | 218 to 220 °C |
| O=C(O)c1ccc2c(c1)CCC(CCN1CCC(c3ccccc3)CC1)C2=O (stereo not drawn) | 118 to 120 °C |
| CCOC(=O)C(=O)Nc1sc(C(=O)OCC)c(C)c1[N+](=O)[O-] | 118 to 120 °C |
| Cc1ccc(Sc2ccc(N)cc2)cc1 | 76 °C |
| O=[N+]([O-])c1cc(C(F)(F)F)ccc1Sc1ccc(O)cc1 | 131 to 134 °C |
| Cc1cccc(CO)c1Cl | 63 to 64 °C |
| Cc1csc2ccc3[nH]c4c(c3c12)CNCC4 | 234 °C |
| Cc1cc(-c2cc(C(F)(F)F)n3nc(CC#N)c(C#N)c3n2)ccc1Cl | 238 °C |
| CCN(CC)C1=NS(=O)(=O)c2cccc(OC(F)F)c21 | 93 to 94 °C |
| CS(=O)(=O)Nc1cc2c(cc1Oc1ccccc1)C(NS(C)(=O)=O)C=C2 (stereo not drawn) | 154 °C |
| CCCCCCCCC(=O)NCc1ccc(C#N)cc1 | 185 to 187 °C |
| COc1cccc(CN2CCc3cc(O)c(OC)cc3C2)c1 | 161 to 162 °C |
| CCOC(=O)CCCCn1c(C(=O)NCc2nnc(C)n2-c2sc(CC)cc2C(=O)c2ccccc2Cl)cc2ccccc21 | 85 to 87 °C |
| Cc1oc(-c2ccc(C(F)(F)F)cc2)nc1COc1cccc(C#CC(C)n2oc(=O)[nH]c2=O)c1 (stereo not drawn) | 84 to 86 °C |
| O=c1nc(-c2cccc(Sc3ncccn3)n2)sc2ccccc12 | 245 to 246 °C |
| O=C(CCc1ccccc1)Nc1c(Cl)ccc2nc(N3CCNCC3)ccc12 | 231 to 234 °C |
| C=Cc1c(C#N)nn(-c2c(Cl)cc(C(F)(F)F)cc2Cl)c1Cl | 69.8 to 70.4 °C |
| COc1ccccc1CN1CCC(=O)C(C(c2ccccc2)c2ccc(F)cc2)C1 (stereo not drawn) | 115 to 116 °C |
| Fc1ccc2[nH]cc(C3=CCC4(CC3)OCCO4)c2c1 | 153 to 155 °C |
| c1ccc2c(c1)c1[nH]cnc1c1nnnn21 | > 300 °C |
| COc1cccc(-c2ccc(N3CCCN(c4ccc(-c5cccc(OC)c5)cn4)CC3)nc2)c1 | 146 to 149 °C |
| CCN(CC)c1ccc(-c2nc(-c3cc(OC)c(O)c(OC)c3)n(C(=O)NS(=O)(=O)c3ccc(C)cc3)c2-c2ccc(N(CC)CC)cc2)cc1 | 65 °C |
| Cc1ccccc1NC1(C#N)CCN(C(=O)c2cc(C(F)(F)F)cc(C(F)(F)F)c2)CC1 | 141 to 142 °C |
| NS(=O)(=O)c1ccc(-n2nc(C(F)(F)F)cc2-c2ccc(-c3ccco3)cc2)c(Cl)c1 | 190 °C |
